Laboratory results: paper PMC4410942 (Chemistry & Biology, 2015)

Key:
[1] = target: T1, PanD-PanZ complex (PanD-PanZ.AcCoA) (Escherichia coli, UniProt P37613); assay: X-ray crystal structure; assay type: binding; details: site on PanZ near the PanD interface; crystals from PEG 3350, bis-Tris propane pH 7.4; one AcCoA per PanZ
T1 construct: heterooctamer (4 PanD + 4 PanZ), about 124 kDa; with Aspartate 1-decarboxylase

[2] = target: T1, PanD-PanZ complex (PanD-PanZ.AcCoA); assay: X-ray crystal structure; assay type: binding; details: site on PanZ near the PanD interface; crystals from PEG 3350, bis-Tris propane pH 7.4; one AcCoA per PanZ; remark: listed apart in the source
[3] = target: T2, PanZ (Escherichia coli, UniProt P37613); assay: 1H-15N HSQC NMR; assay type: binding; details: 0.2 mM PanZ, 50 mM Tris-HCl pH 7.5, 0.1 M NaCl, 0.1 mM DTT, 25 °C
T2 construct: co-purifies with substoichiometric CoA derivatives; monomer
T2 sequence (P37613 1-127): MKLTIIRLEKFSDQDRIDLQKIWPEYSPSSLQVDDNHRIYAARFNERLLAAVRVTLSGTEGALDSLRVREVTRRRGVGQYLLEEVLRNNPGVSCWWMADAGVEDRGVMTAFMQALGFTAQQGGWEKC

[4] = target: ADC (activated PanD) (Escherichia coli, UniProt P0A790); details: without PanZ; 25 °C; 2.5 μM ADC; curves with and without PanZ.AcCoA fitted with a shared KM

Row | X-ray crystal structure [1] | X-ray crystal structure [2] | Compound | 1H-15N HSQC NMR [3] | KM [4]
1 | 4CS0 (PanD(S25A)-PanZ.AcCoA) | PDB ID 4CRZ (PanD(T57V)-PanZ.AcCoA) | CC(=O)SCCNC(=O)CCNC(=O)[C@H](O)C(C)(C)COP(=O)(O)OP(=O)(O)OC[C@H]1O[C@@H](n2cnc3c(N)ncnc32)[C@H](O)[C@@H]1OP(=O)(O)O [AcCoA] | Addition of excess AcCoA led to simplification of the spectrum (Figure 3D) | –
2 | – | – | N[C@@H](CC(=O)O)C(=O)O [compound 5, L-aspartate] | – | Individual curves are fitted to the Michaelis-Menten curve with a shared value of KM
